Measurements from PubChem BioAssay (NCI).
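In this assay, cells in 96-well plates receive the compound at five concentrations for 48 hours. Endpoints are linearly interpolated between the surrounding concentrations. At the TGI there is no net growth.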

Key:
Experiment in all cases: NCI tumour cell line growth inhibition, 48 h
DMS 114 small cell lung = system: DMS 114 small cell lung
XF 498 CNS = system: XF 498 CNS
HOP-18 NSCLC = system: HOP-18 NSCLC
DLD-1 colon = system: DLD-1 colon
786-0 renal = system: 786-0 renal
BT-549 breast = system: BT-549 breast
P388/ADR leukemia = system: P388/ADR leukemia
P388 leukemia = system: P388 leukemia
SN12K1 renal = system: SN12K1 renal
RXF-631 renal = system: RXF-631 renal

SMILES | TGI (DMS 114 small cell lung) | TGI (XF 498 CNS) | TGI (HOP-18 NSCLC) | TGI (DLD-1 colon) | TGI (BT-549 breast) | TGI (RXF-631 renal) | other results
CCOC(=O)/C=C(\C)c1ccc(OC)cc1 | > 100 µM | > 100 µM | > 100 µM | > 100 µM |  |  | 
Cc1ccc(S(N)(=O)=O)cc1 |  |  |  |  | > 1000 µM |  | TGI (786-0 renal): > 1000 µM
NCc1ccc(C(=O)O)cc1 |  |  |  |  | > 100 µM |  | TGI (786-0 renal): > 100 µM
COc1cc(C2c3cc4c(cc3[C@@H](Nc3cccc(C(C)=O)c3)C3COC(=O)[C@H]23)OCO4)cc(OC)c1O (stereo partly specified) | 4.77 µM | 14.9 µM | 54.3 µM | 4.93 µM |  |  | TGI (P388/ADR leukemia): 2.53 µM; TGI (P388 leukemia): 0.254 µM; TGI (SN12K1 renal): 4.61 µM
Brc1ccccc1-c1ncc(-c2ccccc2)o1 |  |  |  |  | > 100 µM |  | 
COc1ccc(-c2cc(N3CCN(c4ccccc4)CC3)c(C#N)c(=O)o2)cc1 | > 100 µM | 19.8 µM | 62.2 µM | > 100 µM |  | > 100 µM | 
N#Cc1c(NC(=S)NC(=O)c2ccccc2)nc2c(c1-c1ccccc1)CCCC2 |  |  |  |  | 96.1 µM |  | 
CCC(C)C(=O)c1c(O)c(C/C=C(\C)CCC=C(C)C)c(O)c2c(C(O)CC)cc(=O)oc12 (stereo unspecified) | 3.35 µM | 4.53 µM |  | 11.3 µM |  | 14.2 µM | 
CC(C)(Br)C1(O)CCCN1C(=O)c1ccccc1 (stereo unspecified) |  |  | > 100 µM | > 100 µM |  | > 100 µM | 
CCO/N=[N+](\[O-])N(CC)CC |  | > 100 µM |  |  |  | > 100 µM | 
